Measurements reported in patent US20250313553A1, “ANNULATED 2-AMINO-3-CYANO THIOPHENES AND DERIVATIVES FOR THE TREATMENT OF CANCER” (Boehringer Ingelheim Int'l GmbH Corp., priority 2021, published 2025).
Values after ≈ are worked out from the molar mass of the structure shown. Read-outs that look alike come from different tables or passages of the source.

Columns and labels:
[1] = target: T1, KRAS (G12D) and SOS1 (Homo sapiens, UniProt P01116, G12D); assay: KRAS::SOS1 AlphaScreen binding assay, KRAS G12D
T1 construct: KRAS (G12D) 1-169, N-terminal 6His-tag; 6His (N); purchased Xtal BioStructures, Inc. (KRAS G12D); Viva Biotech Ltd (SOS1)
T1 sequence (P01116 1-169 isoform P01116-2 G12D): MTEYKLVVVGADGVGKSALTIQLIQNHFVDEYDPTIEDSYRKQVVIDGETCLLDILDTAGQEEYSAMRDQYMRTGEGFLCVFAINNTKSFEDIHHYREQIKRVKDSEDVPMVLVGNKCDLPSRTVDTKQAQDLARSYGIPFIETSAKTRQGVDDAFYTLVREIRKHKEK
Description: (§1) Low IC50 values in this assay setting are indicative of strong inhibition of protein-protein interaction between SOS1 and KRAS:
(§2) These assays measure the inhibitory effect of compounds on KRAS mutant protein-protein interactions using the Alpha Screen technology by Perkin Elmer.
(§3) For the chosen highest assay concentration of 100 μM, 150 nL of compound solution are transferred from a 10 mM DMSO compound stock solution. A series of eleven fivefold dilutions per compound are transferred to the assay plate, compound dilutions are tested in duplicates. DMSO are added as backfill to a total volume of 150 nL.
(§4) The assays run on a fully automated robotic system in a darkened room below 100 Lux. To 150 nl of compound dilution 10 μl of a mix including KRAS mutant protein, SOS1 (final assay concentrations see above) and GDP nucleotide (Sigma G7127; final assay concentration 10 μM) in assay buffer (1×PBS, 0.1% BSA, 0.05% Tween 20) are added into columns 1-24. After 30 minutes incubation time 5 μl of Alpha Screen bead mix in assay buffer are added into columns 1-23.
(§5) Plates are kept at room temperature in a darkened incubator. After an additional 60 minutes incubation time the signal is measured in a PerkinElmer Envision HTS Multilabel Reader using the AlphaScreen specs from PerkinElmer.
(§6) IC50 values are calculated and analyzed with Boehringer Ingelheim's MEGALAB IC50 application using a 4 parametric logistic model.

[2] = target: T2, KRAS (G12C) and SOS1 (Homo sapiens, UniProt P01116, C118S/C51S/C80L/G12C); assay: KRAS::SOS1 AlphaScreen binding assay, KRAS G12C
T2 construct: KRAS (G12C) 1-169, N-terminal 6His-tag for purification; 6His (N, cleaved yes)
T2 sequence (P01116 1-169 isoform P01116-2 G12C/C51S/C80L/C118S): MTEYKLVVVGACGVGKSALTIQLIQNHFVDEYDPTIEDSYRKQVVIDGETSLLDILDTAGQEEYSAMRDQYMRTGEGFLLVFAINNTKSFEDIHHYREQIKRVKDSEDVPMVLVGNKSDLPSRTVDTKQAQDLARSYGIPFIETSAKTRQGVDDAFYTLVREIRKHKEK
Description: as §1, §2, §3, §4, §5, §6

[3] = target: KRAS G12D Ba/F3 cells (Homo sapiens, UniProt P01116, G12D, cells depend on it); assay: Ba/F3 proliferation assay, KRAS G12D; assay type: cell-based; conditions: 72 h, AlamarBlue, read-out: KRAS G12D Ba/F3 IC50
Sequence of KRAS G12D Ba/F3 cells (P01116 whole entry G12D, canonical isoform): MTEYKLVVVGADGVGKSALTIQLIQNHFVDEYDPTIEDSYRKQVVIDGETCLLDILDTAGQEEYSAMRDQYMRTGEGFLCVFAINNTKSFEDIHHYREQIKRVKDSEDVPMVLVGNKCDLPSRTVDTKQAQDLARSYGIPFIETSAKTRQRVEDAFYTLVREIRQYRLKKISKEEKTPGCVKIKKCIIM
Description: (§7) To generate KRASG12-dependent Ba/F3 models, Ba/F3 cells are transduced with retroviruses containing vectors that harbor KRASG12 isoforms. Platinum-E cells (Cell Biolabs) are used for retrovirus packaging. Retrovirus is added to Ba/F3 cells. To ensure infection, 4 μg/mL polybrene is added and cells are spinfected. […] Cells with an infection efficiency of 10% to 20% are further cultivated and puromycin selection with 1 μg/mL is initiated. As a control, parental Ba/F3 cells are used to show selection status. Selection is considered successful when parental Ba/F3 cells cultures died. To evaluate the transforming potential of KRASG12 mutations, the growth medium is no longer supplemented with IL-3. Ba/F3 cells harboring the empty vector are used as a control. Approximately ten days before conducting the experiments, puromycin is left out.
(§8) All treatments are performed in technical duplicates. […] AlamarBlue™ (ThermoFisher), a viability stain, is added and fluorescence measured in the PerkinElmer Envision HTS Multilabel Reader. The raw data are imported into and analyzed with the Boehringer Ingelheim proprietary software MegaLab (curve fitting based on the program PRISM, GraphPad Inc.).

[4] = target: KRAS G12C Ba/F3 cells (Homo sapiens, UniProt P01116, G12C, cells depend on it); assay: Ba/F3 proliferation assay, KRAS G12C; assay type: cell-based; conditions: 72 h, AlamarBlue, read-out: KRAS G12C Ba/F3 IC50
Sequence of KRAS G12C Ba/F3 cells (P01116 whole entry G12C): as the sequence (P01116 whole entry G12D, canonical isoform) above, with D12C counted along it
Description: as §7, §8

[5] = tested on: ERK phosphorylation in NCI-H358 (KRAS G12C); assay: ERK phosphorylation assay (assay 1, NCI-H358); assay type: cell-based; conditions: Homo sapiens; NCI-H358, assay 1, 1 h incubation; read-out: IC50 H358 pERK
Description: Low IC50 values in this assay setting are indicative of high potency of the compounds according to the invention. […]
The cells are incubated for 1 h at room temperature and then incubated overnight in an incubator at 37° C. and 5% CO2 in a humidified atmosphere. 60 nL compound solution (10 mM DMSO stock solution) is then added using a Labcyte Echo 550 device. […] After 20 min of incubation at room temperature with shaking, 6 μL of each lysate sample is transferred to a 384-well Proxiplate and analyzed for pERK (Thr202/Tyr204) with the AlphaLISA SureFire Ultra pERK1/2 (Thr202/Tyr204) Assay Kit. 3 μL Acceptor Mix and 3 μL Donor Mix are added under subdued light and incubated for 2 h at room temperature in the dark, before the signal is measured on a PerkinElmer Envision HTS Multilabel Reader. The raw data are imported into and analyzed with the Boehringer Ingelheim proprietary software MegaLab (curve fitting based on the program PRISM, GraphPad Inc.).

[6] = Solubility measurement (DMSO solution precipitation method); assay type: physicochemical; conditions: aqueous buffer, kinetic from dmso stock
Description: The DMSO solution is diluted with an aqueous medium (McIlvaine buffer with pH=4.5 or 6.8) to a final concentration of 250 μM. After 24 h of shaking at ambient temperature a potentially formed precipitate is removed by filtration. The concentration of the test compound in the filtrate is determined by LC-UV methods by calibrating the signal to the signal of a reference solution with complete dissolution of the test compound in acetonitrile/water (1:1) with known concentration.

[7] = target: T3, KRAS (G12V) and SOS1 (Homo sapiens, UniProt P01116, C118S/G12V); assay: KRAS::SOS1 AlphaScreen binding assay, KRAS G12V
T3 construct: KRAS (G12V) 1-169, N-terminal 6His-tag for purification; 6His (N, cleaved yes); TEV cleavage site
T3 sequence (P01116 1-169 isoform P01116-2 G12V/C118S): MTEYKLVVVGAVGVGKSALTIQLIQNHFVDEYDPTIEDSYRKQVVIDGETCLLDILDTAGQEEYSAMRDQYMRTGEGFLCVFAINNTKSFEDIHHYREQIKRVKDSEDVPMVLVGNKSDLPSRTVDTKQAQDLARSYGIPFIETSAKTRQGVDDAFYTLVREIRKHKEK
Description: as §1, §2, §3, §4, §5, §6

[8] = target: KRAS G12V Ba/F3 cells (Homo sapiens, UniProt P01116, G12V, cells depend on it); assay: Ba/F3 proliferation assay, KRAS G12V; assay type: cell-based; conditions: 72 h, AlamarBlue, read-out: KRAS G12V Ba/F3 IC50
Sequence of KRAS G12V Ba/F3 cells (P01116 whole entry G12V): as the sequence (P01116 whole entry G12D, canonical isoform) above, with D12V counted along it
Description: as §7, §8

[9] = Metabolic (microsomal) stability assay, HLM; assay type: in vitro ADME; conditions: human liver microsomes, 1 μM, predicted clearance as percent of liver blood flow
Description: The metabolic degradation of the test compound is assayed at 37° C. with pooled liver microsomes (mouse (MLM), rat (RLM) or human (HLM)). The final incubation volume of 48 μL per time point contains TRIS buffer (pH 7.5; 0.1 M), magnesium chloride (6.5 mM), microsomal protein (0.5 mg/mL for mouse/rat, 1 mg/mL for human specimens) and the test compound at a final concentration of 1 μM. Following a short preincubation period at 37° C., the reactions are initiated by addition of 12 μL beta-nicotinamide adenine dinucleotide phosphate, reduced form (NADPH, 10 mM) and terminated by transferring an aliquot into solvent after different time points (0, 5, 15, 30, 60 min). Additionally, the NADPH-independent degradation is monitored in incubations without NADPH, terminated at the last time point by addition of acetonitrile. The quenched incubations are pelleted by centrifugation (4,000 rpm, 15 min). An aliquot of the supernatant is assayed by LC-MS/MS to quantify the concentration of parent compound in the individual samples.
In vitro intrinsic clearance (CLint, in vitro) is calculated from the time course of the disappearance of the test drug during the microsomal incubation. Each plot is fitted to the first-order elimination rate constant as C(t)=C0*exp(−ke*t), where C(t) and C0 are the concentration of unchanged test drug at incubation time t and that at preincubation and ke is the disappearance rate constant of the unchanged drug. Subsequently, CLint, in vitro (μL min^−1·amount protein) values are converted to predicted CLint, in vivo (mL min^−1·kg^−1) from incubation parameters according to the equation CLint, in vivo=CLint, in vitro×(incubation volume (ml)/amount protein (mg))×(amount protein (mg)/g liver tissue)×(liver weight/body wt.). For better across species comparison the predicted clearance is expressed as percent of the liver blood flow [% QH](mL min^−1·kg^−1) in the individual species. In general, high stability (corresponding to low % QH) of the compounds across species is desired.

[10] = McIlvaine buffer pH 4.5, 24 h, read-out: solubility pH 4.5
[11] = McIlvaine buffer pH 6.8, 24 h, read-out: solubility pH 6.8

SMILES | IC50 [1] [nM] | IC50 [2] [nM] | GI50 [3] [nM] | GI50 [4] [nM] | IC50 [5] [nM] | solubility at 24 h [6, 10] [µg/mL] | solubility at 24 h [6, 11] [µg/mL] | IC50 [7] [nM] | GI50 [8] [nM] | HLM QH [9] [%]
C[C@H](Oc1ccnc(-c2cc([C@@]3(C)CCCc4sc(N)c(C#N)c43)on2)n1)[C@@H]1CCCN1C [Example V-24] | 2 | 4 | 108 | 105 | 19 | > 110 | > 110 |  |  | 
C[C@H](Oc1ccnc(-c2cc([C@@]3(C)CCCc4sc(N)c(C#N)c43)no2)n1)[C@@H]1CCCN1C [Example V-25] | 9 | 14 | 961 | 940 | 100 | > 110 | > 100 | 11 | 6060 | 
CC(C)N1CCCN(c2nccc(-c3cc([C@@]4(C)CCCc5sc(N)c(C#N)c54)on3)n2)[C@@H](C)C1 [Example V-26] | 2 | 7 | 79 | 95 |  | > 100 | 95 (≈ 193 µM) |  |  | 
C[C@H]1CN(CC2CC2)CCCN1c1nccc(-c2noc([C@@]3(C)CCCc4sc(N)c(C#N)c43)n2)n1 [Example V-3] | 3 | 6 | 214 | 409 | 24 | > 100 | 82 (≈ 162 µM) | 5 | 516 | >95
